US10681909B2, “Herbicidal triazoles” (FMC Corporation, priority 2014, dated 2020)

Experiments:
barnyardgrass [1] = assay: Test A postemergence; format: in vivo, Echinochloa crus-galli; settings: 0 to 100 scale (0 no effect, 100 complete control), approx. 10 d
Summary of the method: (§1)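 Plant seeds in loam soil blended with sand, then apply test chemical preemergence as a directed soil spray; in parallel, spray potted seedlings (one- to two-leaf, 2 to 10 cm) postemergence. Both treatments use a non-phytotoxic solvent mixture with surfactant.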

corn [2] = assay: Test A preemergence; format: in vivo, Zea mays; settings: 0 to 100 scale (0 no effect, 100 complete control)
Summary of the method: as §1

rice [3] = assay: Test C flooded paddy test; format: in vivo, Oryza sativa; settings: Flood, applied to paddy water, rating after 13 to 15 d
Excerpt: (§2) At time of treatment, test pots were flooded to 3 cm above the soil surface, treated by application of test compounds directly to the paddy water, and then maintained at that water depth for the duration of the test. Treated plants and controls were maintained in a greenhouse for 13 to 15 d, after which time all species were compared to controls and visually evaluated. […] A dash (-) response means no test result.

crabgrass, large [4] = assay: Test A preemergence; format: in vivo, Digitaria sanguinalis; settings: 0 to 100 scale (0 no effect, 100 complete control)
Summary of the method: as §1

morningglory [5] = assay: Test A preemergence; format: in vivo, Ipomoea spp.; settings: 0 to 100 scale (0 no effect, 100 complete control)
Summary of the method: as §1

barnyardgrass [6] = assay: Test A preemergence; format: in vivo, Echinochloa crus-galli; settings: 0 to 100 scale (0 no effect, 100 complete control)
Summary of the method: as §1

pigweed [7] = assay: Test A preemergence; format: in vivo, Amaranthus retroflexus; settings: 0 to 100 scale (0 no effect, 100 complete control)
Summary of the method: as §1

wheat [8] = assay: Test A preemergence; format: in vivo, Triticum aestivum; settings: 0 to 100 scale (0 no effect, 100 complete control)
Summary of the method: as §1

barnyardgrass [9] = assay: Test C flooded paddy test; format: in vivo, Echinochloa crus-galli; settings: Flood, applied to paddy water, rating after 13 to 15 d
Excerpt: as §2

pigweed [10] = assay: Test A postemergence; format: in vivo, Amaranthus retroflexus; settings: 0 to 100 scale (0 no effect, 100 complete control), approx. 10 d
Summary of the method: as §1

velvetleaf [11] = assay: Test A postemergence; format: in vivo, Abutilon theophrasti; settings: 0 to 100 scale (0 no effect, 100 complete control), approx. 10 d
Summary of the method: as §1

crabgrass, large [12] = assay: Test A postemergence; format: in vivo, Digitaria sanguinalis; settings: 0 to 100 scale (0 no effect, 100 complete control), approx. 10 d
Summary of the method: as §1

foxtail, giant [13] = assay: Test A postemergence; format: in vivo, Setaria faberii; settings: 0 to 100 scale (0 no effect, 100 complete control), approx. 10 d
Summary of the method: as §1

corn [14] = assay: Test A postemergence; format: in vivo, Zea mays; settings: 0 to 100 scale (0 no effect, 100 complete control), approx. 10 d
Summary of the method: as §1

wheat [15] = assay: Test A postemergence; format: in vivo, Triticum aestivum; settings: 0 to 100 scale (0 no effect, 100 complete control), approx. 10 d
Summary of the method: as §1

foxtail, giant [16] = assay: Test A preemergence; format: in vivo, Setaria faberii; settings: 0 to 100 scale (0 no effect, 100 complete control)
Summary of the method: as §1

morningglory [17] = assay: Test A postemergence; format: in vivo, Ipomoea spp.; settings: 0 to 100 scale (0 no effect, 100 complete control), approx. 10 d
Summary of the method: as §1

velvetleaf [18] = assay: Test A preemergence; format: in vivo, Abutilon theophrasti; settings: 0 to 100 scale (0 no effect, 100 complete control)
Summary of the method: as §1

ducksalad [19] = assay: Test C flooded paddy test; format: in vivo, Heteranthera limosa; settings: Flood, applied to paddy water, rating after 13 to 15 d
Excerpt: as §2

sedge, umbrella [20] = assay: Test C flooded paddy test; format: in vivo, Cyperus difformis; settings: Flood, applied to paddy water, rating after 13 to 15 d
Excerpt: as §2

rice [21] = assay: Test B flooded paddy test; format: in vivo, Oryza sativa; settings: 250 g ai/ha, applied to paddy water at 2-leaf stage, visual rating after 13 to 15 d, scale 0 (no effect) to 100 (complete control)
Summary of the method: (§3)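 Pots were flooded to 3 cm above the soil at treatment, and compounds were applied directly into the paddy water. That depth was held throughout. After 13 to 15 d in a greenhouse, plants were rated visually against untreated controls.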

sedge, umbrella [22] = assay: Test B flooded paddy test; format: in vivo, Cyperus difformis; settings: 250 g ai/ha, applied to paddy water at 2-leaf stage, visual rating after 13 to 15 d, scale 0 (no effect) to 100 (complete control)
Summary of the method: as §3

ducksalad [23] = assay: Test B flooded paddy test; format: in vivo, Heteranthera limosa; settings: 250 g ai/ha, applied to paddy water at 2-leaf stage, visual rating after 13 to 15 d, scale 0 (no effect) to 100 (complete control)
Summary of the method: as §3

barnyardgrass [24] = assay: Test B flooded paddy test; format: in vivo, Echinochloa crus-galli; settings: 250 g ai/ha, applied to paddy water at 2-leaf stage, visual rating after 13 to 15 d, scale 0 (no effect) to 100 (complete control)
Summary of the method: as §3

## Cc1nc(-c2ccc(C(F)(F)F)cc2)nn1Cc1cccc(C(F)(F)F)c1 [Compound 3]
Barnyardgrass [1]; 125 g ai/ha
  Plant response rating, Barnyardgrass: 0
Barnyardgrass [1]; 500 g ai/ha
  Plant response rating, Barnyardgrass: 10
Corn [2]; 125 g ai/ha
  Plant response rating, Corn: 0
Corn [2]; 500 g ai/ha, approx. 10 d
  Plant response rating, Corn: 0
Rice [3]; 31 g ai/ha
  Rice plant response rating (0 to 100): 0
Rice [3]; 62 g ai/ha
  Rice plant response rating (0 to 100): 0
Rice [3]; 125 g ai/ha
  Rice plant response rating (0 to 100): 0
Rice [3]; 250 g ai/ha
  Rice plant response rating (0 to 100): 0
crabgrass, large [4]; 125 g ai/ha
  Plant response rating, Crabgrass, Large: 0
crabgrass, large [4]; 500 g ai/ha, approx. 10 d
  Plant response rating, Crabgrass, Large: 40
Morningglory [5]; 125 g ai/ha
  Plant response rating, Morningglory: 0
Morningglory [5]; 500 g ai/ha, approx. 10 d
  Plant response rating, Morningglory: 0
Barnyardgrass [6]; 125 g ai/ha
  Plant response rating, Barnyardgrass: 0
Barnyardgrass [6]; 500 g ai/ha, approx. 10 d
  Plant response rating, Barnyardgrass: 0
Pigweed [7]; 125 g ai/ha
  Plant response rating, Pigweed: 10
Pigweed [7]; 500 g ai/ha, approx. 10 d
  Plant response rating, Pigweed: 80
Wheat [8]; 125 g ai/ha
  Plant response rating, Wheat: 0
Wheat [8]; 500 g ai/ha, approx. 10 d
  Plant response rating, Wheat: 0
Barnyardgrass [9]; 31 g ai/ha
  Barnyardgrass plant response rating (0 to 100): 0
Barnyardgrass [9]; 62 g ai/ha
  Barnyardgrass plant response rating (0 to 100): 20
Barnyardgrass [9]; 125 g ai/ha
  Barnyardgrass plant response rating (0 to 100): 20
Barnyardgrass [9]; 250 g ai/ha
  Barnyardgrass plant response rating (0 to 100): 20
Pigweed [10]; 125 g ai/ha
  Plant response rating, Pigweed: 60
Pigweed [10]; 500 g ai/ha
  Plant response rating, Pigweed: 100
Velvetleaf [11]; 125 g ai/ha
  Plant response rating, Velvetleaf: 10
Velvetleaf [11]; 500 g ai/ha
  Plant response rating, Velvetleaf: 40
crabgrass, large [12]; 125 g ai/ha
  Plant response rating, Crabgrass, Large: 10
crabgrass, large [12]; 500 g ai/ha
  Plant response rating, Crabgrass, Large: 40
foxtail, giant [13]; 125 g ai/ha
  Plant response rating, Foxtail, Giant: 10
foxtail, giant [13]; 500 g ai/ha
  Plant response rating, Foxtail, Giant: 30
Corn [14]; 125 g ai/ha
  Plant response rating, Corn: 10
Corn [14]; 500 g ai/ha
  Plant response rating, Corn: 20
Wheat [15]; 125 g ai/ha
  Plant response rating, Wheat: 0
Wheat [15]; 500 g ai/ha
  Plant response rating, Wheat: 0
foxtail, giant [16]; 125 g ai/ha
  Plant response rating, Foxtail, Giant: 0
foxtail, giant [16]; 500 g ai/ha, approx. 10 d
  Plant response rating, Foxtail, Giant: 30
Morningglory [17]; 125 g ai/ha
  Plant response rating, Morningglory: 40
Morningglory [17]; 500 g ai/ha
  Plant response rating, Morningglory: 80
Velvetleaf [18]; 125 g ai/ha
  Plant response rating, Velvetleaf: 0
Velvetleaf [18]; 500 g ai/ha, approx. 10 d
  Plant response rating, Velvetleaf: 0
Ducksalad [19]; 31 g ai/ha
  Ducksalad plant response rating (0 to 100): 0
Ducksalad [19]; 62 g ai/ha
  Ducksalad plant response rating (0 to 100): 20
Ducksalad [19]; 125 g ai/ha
  Ducksalad plant response rating (0 to 100): 30
Ducksalad [19]; 250 g ai/ha
  Ducksalad plant response rating (0 to 100): 40
sedge, umbrella [20]; 31 g ai/ha
  Sedge, Umbrella plant response rating (0 to 100): 0
sedge, umbrella [20]; 62 g ai/ha
  Sedge, Umbrella plant response rating (0 to 100): 0
sedge, umbrella [20]; 125 g ai/ha
  Sedge, Umbrella plant response rating (0 to 100): 40
sedge, umbrella [20]; 250 g ai/ha
  Sedge, Umbrella plant response rating (0 to 100): 50

## CCCc1nc(-c2ccc(F)c(F)c2)nn1Cc1ccnc(C(F)(F)F)c1 [Compound 23]
Barnyardgrass [1]; 125 g ai/ha
  Plant response rating, Barnyardgrass: 50
Barnyardgrass [1]; 500 g ai/ha
  Plant response rating, Barnyardgrass: 70
Corn [2]; 125 g ai/ha
  Plant response rating, Corn: 20
Corn [2]; 500 g ai/ha, approx. 10 d
  Plant response rating, Corn: 30
Rice [21]
  Plant response rating, Rice, Flood: 25
Rice [3]; 31 g ai/ha
  Rice plant response rating (0 to 100): 0
Rice [3]; 62 g ai/ha
  Rice plant response rating (0 to 100): 0
Rice [3]; 125 g ai/ha
  Rice plant response rating (0 to 100): 0
Rice [3]; 250 g ai/ha
  Rice plant response rating (0 to 100): 0
crabgrass, large [4]; 125 g ai/ha
  Plant response rating, Crabgrass, Large: 100
crabgrass, large [4]; 500 g ai/ha, approx. 10 d
  Plant response rating, Crabgrass, Large: 100
Morningglory [5]; 125 g ai/ha
  Plant response rating, Morningglory: 50
Morningglory [5]; 500 g ai/ha, approx. 10 d
  Plant response rating, Morningglory: 80
sedge, umbrella [22]
  Plant response rating, Sedge, Umbrella, Flood: 95
Ducksalad [23]
  Plant response rating, Ducksalad, Flood: 90
Barnyardgrass [6]; 125 g ai/ha
  Plant response rating, Barnyardgrass: 50
Barnyardgrass [6]; 500 g ai/ha, approx. 10 d
  Plant response rating, Barnyardgrass: 100
Pigweed [7]; 125 g ai/ha
  Plant response rating, Pigweed: 100
Pigweed [7]; 500 g ai/ha, approx. 10 d
  Plant response rating, Pigweed: 100
Wheat [8]; 125 g ai/ha
  Plant response rating, Wheat: 20
Wheat [8]; 500 g ai/ha, approx. 10 d
  Plant response rating, Wheat: 40
Barnyardgrass [9]; 31 g ai/ha
  Barnyardgrass plant response rating (0 to 100): 0
Barnyardgrass [9]; 62 g ai/ha
  Barnyardgrass plant response rating (0 to 100): 10
Barnyardgrass [9]; 125 g ai/ha
  Barnyardgrass plant response rating (0 to 100): 15
Barnyardgrass [9]; 250 g ai/ha
  Barnyardgrass plant response rating (0 to 100): 20
Pigweed [10]; 125 g ai/ha
  Plant response rating, Pigweed: 100
Pigweed [10]; 500 g ai/ha
  Plant response rating, Pigweed: 100
Velvetleaf [11]; 125 g ai/ha
  Plant response rating, Velvetleaf: 70
Velvetleaf [11]; 500 g ai/ha
  Plant response rating, Velvetleaf: 100
crabgrass, large [12]; 125 g ai/ha
  Plant response rating, Crabgrass, Large: 70
crabgrass, large [12]; 500 g ai/ha
  Plant response rating, Crabgrass, Large: 90
foxtail, giant [13]; 125 g ai/ha
  Plant response rating, Foxtail, Giant: 70
foxtail, giant [13]; 500 g ai/ha
  Plant response rating, Foxtail, Giant: 90
Corn [14]; 125 g ai/ha
  Plant response rating, Corn: 30
Corn [14]; 500 g ai/ha
  Plant response rating, Corn: 60
Wheat [15]; 125 g ai/ha
  Plant response rating, Wheat: 30
Wheat [15]; 500 g ai/ha
  Plant response rating, Wheat: 50
Barnyardgrass [24]
  Plant response rating, Barnyardgrass, Flood: 90
foxtail, giant [16]; 125 g ai/ha
  Plant response rating, Foxtail, Giant: 100
foxtail, giant [16]; 500 g ai/ha, approx. 10 d
  Plant response rating, Foxtail, Giant: 100
Morningglory [17]; 125 g ai/ha
  Plant response rating, Morningglory: 50
Morningglory [17]; 500 g ai/ha
  Plant response rating, Morningglory: 90
Velvetleaf [18]; 125 g ai/ha
  Plant response rating, Velvetleaf: 30
Velvetleaf [18]; 500 g ai/ha, approx. 10 d
  Plant response rating, Velvetleaf: 80
Ducksalad [19]; 31 g ai/ha
  Ducksalad plant response rating (0 to 100): 30
Ducksalad [19]; 62 g ai/ha
  Ducksalad plant response rating (0 to 100): 45
Ducksalad [19]; 125 g ai/ha
  Ducksalad plant response rating (0 to 100): 75
Ducksalad [19]; 250 g ai/ha
  Ducksalad plant response rating (0 to 100): 80
sedge, umbrella [20]; 31 g ai/ha
  Sedge, Umbrella plant response rating (0 to 100): 80
sedge, umbrella [20]; 62 g ai/ha
  Sedge, Umbrella plant response rating (0 to 100): 85
sedge, umbrella [20]; 125 g ai/ha
  Sedge, Umbrella plant response rating (0 to 100): 90
sedge, umbrella [20]; 250 g ai/ha
  Sedge, Umbrella plant response rating (0 to 100): 95
